According to patent USRE48461E1, “Modulation of androgen receptor expression” (Ionis Pharmaceuticals, Inc., priority 2012, dated 2021):

Key:
[1] = test system: TMPRSS2 mRNA; assay: TMPRSS2 mRNA levels in LMR20 cells; assay type: cell-based, human; conditions: with or without DHT/R1881
Procedure: LMR20 cells were plated at 1,500 cells per well in phenol red-free medium with CSS.

[2] = test system: 22RV1 cells; assay: 22RV1 cell proliferation with/without DHT (MTT); assay type: cell-based, human; conditions: 5 days; for Percent inhibition of 22RV1 cell proliferation: RNAiMAX
Procedure: 22RV1cells were plated at 1,500 cells per well. […] Separate sets of cells, also treated with each of the antisense oligonucleotides, were treated with DHT added on day 1 at a final concentration of 1 nM. After a treatment period of 5 days, the proliferative ability of the cancer cells was measured using the standard MTT assay. Results are presented in Table 69 as percent inhibition of proliferation, relative to non-treated cells.

[3] = test system: C4-2 cells; assay: C4-2 cell proliferation (complete or CSS+DHT medium); assay type: cell-based, human; conditions: 5 days; for Proliferation (% untreated control): C4-2 cells
Procedure: After a treatment period of 5 days in complete medium or CSS+1 nM DHT medium, the proliferative capacity of the cancer cells was measured with using CellTiter 96® AQueous One Solution or CellTiter-Glo® Cell Proliferation kit (Promega), following the manufacturer's instructions. […] The proliferative capacity of cells cultured in CSS medium without DHT is 17% of untreated control levels.

[4] = test system: PSA mRNA; assay: PSA expression in C4-2B cells (Example 30); assay type: cell-based, human; conditions: 48 hrs
Procedure: Cells were plated at 1,000 cells per well. […] ISIS 549148 was included as a negative control. […] After an incubation period of 48 hrs, RNA levels of AR, PSA and TMPRSS2 were measured.
Cells were plated at 2,000 cells per well and cultured in CSS media with 1 nM DHT. […] ISIS 549148 was included as a negative control. […] After an incubation period of 48 hrs, RNA levels of AR, PSA and TMPRSS2 were measured. In the absence of DHT, AR expression in C4-2 cells was 188%, PSA expression was 43% and TMPRSS2 expression was 27% compared to the untreated control.

[5] = test system: full length AR mRNA; assay: Full-length AR RNA in VCaP cells (complete, CSS+DHT medium); assay type: cell-based, human; conditions: RNAiMax, 48 hrs
Procedure: Cells were plated at 10,000 cells per well. […] After an incubation period of 48 hrs, RNA levels of full length AR, the V7 variant, PSA and TMPRSS2 were measured.
After an incubation period of 48 hrs, RNA levels of full length AR, the V7 variant, PSA and TMPRSS2 were measured. The data is presented in Tables 108 expressed as percent expression of gene levels compared to the untreated control.
Cells were plated at 15,000 cells per well and cultured in CSS media for 16 hours. […] After 4 hrs, 1 nM DHT was added. […] After an incubation period of 48 hrs, RNA levels of AR, PSA and TMPRSS2 were measured.

[6] = test system: 22RV1 cells; assay: 22RV1 cell proliferation (Example 32); assay type: cell-based, human; conditions: 5 days; for Proliferation (% untreated control): 22RV1 cells, complete medium
Procedure: After a treatment period of 5 days in complete medium, the proliferative capacity of the cancer cells was measured with using CellTiter 96® AQueous One or CellTiter-Glo® Solution Cell Proliferation kit (Promega), following the manufacturer's instructions. […] Treatment with ISIS oligonucleotides in CSS+DHT medium reduced the proliferative capacity to a greater extent than treatment with MVD-3100. The proliferative capacity of cells cultured in CSS medium without DHT is 12% of untreated control levels.

[7] = test system: MDA-MB-453 tumor; assay: Tumor volume in MDA-MB-453 breast cancer orthotopic model; assay type: in vivo, NSG mice; conditions: Study 2, MDA-MB-453 model, NSG mice, 50 mg/kg s.c. 5 days per week for 2 weeks

## TTGATTTAATGGTTGC [ISIS 560131] (MOE and (S)-cEt gapmer chemistry, further chemistry not given here) [targets intron 1]
[1]
  TMPRSS2 mRNA levels in LMR20 cells: reduced PSA levels and TMPRSS2 more extensively than the LNA gapmer ISIS 554221 or MDV3100
[2]; +DHT (1 nM), ASO 1.34 nM
  Percent inhibition of 22RV1 cell proliferation: 0%
[2]; +DHT (1 nM), ASO 4.0 nM
  Percent inhibition of 22RV1 cell proliferation: 1%
[2]; +DHT (1 nM), ASO 13.4 nM
  Percent inhibition of 22RV1 cell proliferation: 13%
[2]; +DHT (1 nM), ASO 40.0 nM
  Percent inhibition of 22RV1 cell proliferation: 34%
[2]; with or without 1 nM DHT
  22RV1 cell proliferation: significantly inhibited prostate cancer cell proliferation even in the presence of AR activator, DHT, compared to the control
[2]; −DHT, ASO 1.34 nM
  Percent inhibition of 22RV1 cell proliferation: 0%
[2]; −DHT, ASO 4.0 nM
  Percent inhibition of 22RV1 cell proliferation: 2%
[2]; −DHT, ASO 13.4 nM
  Percent inhibition of 22RV1 cell proliferation: 29%
[2]; −DHT, ASO 40.0 nM
  Percent inhibition of 22RV1 cell proliferation: 54%
[3]; CSS + DHT medium, 0.04 μM
  Proliferation (% untreated control): 106 % untreated control
[3]; CSS + DHT medium, 0.2 μM
  Proliferation (% untreated control): 94 % untreated control
[3]; CSS + DHT medium, 1 μM
  Proliferation (% untreated control): 47 % untreated control
[3]; CSS + DHT medium, 5.0 μM
  Proliferation (% untreated control): 31 % untreated control
[3]; complete medium, 0.04 μM
  Proliferation (% untreated control): 104 % untreated control
[3]; complete medium, 0.2 μM
  Proliferation (% untreated control): 82 % untreated control
[3]; complete medium, 1 μM
  Proliferation (% untreated control): 70 % untreated control
[3]; complete medium, 5.0 μM
  Proliferation (% untreated control): 51 % untreated control
[3]; complete medium or CSS+1 nM DHT
  proliferation of C4-2 cells: reduced proliferation of the cells in a dose dependent manner compared to the control
[4]; CSS + DHT medium, 0.04 μM
  Percent inhibition of PSA expression: 0%
[4]; CSS + DHT medium, 0.2 μM
  Percent inhibition of PSA expression: 17%
[4]; CSS + DHT medium, 1 μM
  Percent inhibition of PSA expression: 50%
[4]; CSS + DHT medium, 5.0 μM
  Percent inhibition of PSA expression: 61%
[4]; complete medium, 0.04 μM
  Percent inhibition of PSA expression: 56%
[4]; complete medium, 0.2 μM
  Percent inhibition of PSA expression: 84%
[4]; complete medium, 1 μM
  Percent inhibition of PSA expression: 89%
[4]; complete medium, 5.0 μM
  Percent inhibition of PSA expression: 92%
[5]; CSS medium, 1.34 nM
  Percent inhibition of full-length AR: 12%
[5]; CSS medium, 4.0 nM
  Percent inhibition of full-length AR: 16%
[5]; CSS medium, 13.4 nM
  Percent inhibition of full-length AR: 37%
[5]; CSS medium, 40 nM
  Percent inhibition of full-length AR: 38%
[5]; complete medium, 1.34 nM
  Percent inhibition of full-length AR: 0%
[5]; complete medium, 4.0 nM
  Percent inhibition of full-length AR: 59%
[5]; complete medium, 13.4 nM
  Percent inhibition of full-length AR: 77%
[5]; complete medium, 40 nM
  Percent inhibition of full-length AR: 84%
[6]; 1.34 nM
  Proliferation (% untreated control): 94 % untreated control
[6]; 4.0 nM
  Proliferation (% untreated control): 72 % untreated control
[6]; 13.4 nM
  Proliferation (% untreated control): 50 % untreated control
[6]; 40 nM
  Proliferation (% untreated control): 17 % untreated control
[6]
  proliferation of 22RV1 cells: reduced proliferation of the cells in a dose dependent compared to the control
[7]; Day 0
  Tumor volumes: 144
[7]; Day 8
  Tumor volumes: 261
[7]; Day 13
  Tumor volumes: 243
[7]; Day 20
  Tumor volumes: 204
[7]; Day 23
  Tumor volumes: 232
[7]; Day 27
  Tumor volumes: 233
[7]; Day 29
  Tumor volumes: 258
